Experimental findings from patent US7479374B2, “Triacylglycerol-deficient fission yeast and its uses” (priority 2003, dated 2009) are described below.

Molecules are shown by their SMILES. Residues, ends and D or L forms follow the SMILES beside them. *: point of attachment. Cbz = O=C(OCc1ccccc1)*; CH2F = FC*

Common to all, as to format: cell-based, Schizosaccharomyces pombe
The subject of assay [1] is WT and DKO S. pombe cells. The assay is described as follows: DHS, PHS or C2-ceramide treatment: viability and DNA fragmentation. The following applies: various concentrations, 0-3 hours. How it is done: (§1) Cell viability assay: For cell viability at different growth phases, cells were grown to various densities in YES (determined by OD595). The number of viable cells was obtained after cells were diluted properly in distilled water and plated in triplicates on YES agar. Colonies were scored after 3 days of incubation at 30° C. For cell viability after various treatments, cells were grown to early log phase (OD595=0.1) before lipids or other chemicals were added. After treatment, cells were collected and viability was analyzed as described above.
(§2) DAG, fatty acid and ceramide treatment: For fatty acid treatment, palmitic acid and oleic acid were dissolved in chloroform as 500 mM stock. Each microliter of fatty acids was dissolved in 12.5 μl tyloxapol-enthanol (1:1) and added into growth medium. Wild type and DKO strains were grown to early log phase and then incubated in medium containing different concentrations (0.5 mM, 0.8 mM and 1 mM) of palmitic acid or oleic acid for 0-3 hours. Control groups were cultured in the medium added with the same volume of tyloxapol-enthanol without fatty acids. After incubation, cells were analyzed for viability and DNA fragmentation. DiC8 DAG and ceramide were dissolved in DMSO. The working concentrations for DAG was 0.1 mM, 0.2 mM or 0.3 mM, while for ceramide was 10 μM or 20 μM (23, 24).
(§3) 4′,6-diamidino-2-phenylindole (DAPI) staining: Cells were fixed with 3.7% formaldehyde for 10 minutes, washed once with PBS containing 4% NP40 and twice with PBS, and then stained with DAPI. Cells were viewed using a Leica DMLB microscope.
(§4) Terminal deoxynucleotidyl transferase(TdT)-mediated dUTP nick-end labeling (TUNEL): Cells were fixed with 3.7% formaldehyde for 1 hr, digested with zymolase, washed with PBS, incubated in a permeabilization solution (0.1% Triton in 0.1% sodium citrate) for 2 minutes on ice, washed twice with PBS and incubated with 50 μl TUNEL mixtures for 1 hour at 37° C. Cells were washed with PBS twice and were viewed using a Leica DMLB microscope.

The subject of assay [2] is DKO strain (S. pombe Δplh1 Δdga1 double deletion). The assay is described as follows: Detection of apoptotic markers: DAPI staining and TUNEL (DNA fragmentation). The following applies: for cells undergoing apoptosis in the presence of the inhibitor / rescue of palmitate-induced apoptosis: double deletion cells treated with 0.8 mM of palmitate; for apoptosis induced by fatty acid: DKO cells, early log phase, two hours (FIGS. 14-16). How it is done: as §2
Detection of apoptotic markers: All assays in this section were performed as previously described (26).
as §3, §4

The test system of assay [3] is DKO cells. Briefly: Production of reactive oxygen species (dihydroethidium). As to conditions: for ROS production: incubation of log phase cells. The protocol:
Production of reactive oxygen species: ROS were detected by dihydroethidium (Sigma), which was used at 5 μg per ml cell culture. After incubation for 10 minutes, cells were viewed under a Leica DMLB microscope through a Texas Red filter. The free radical spin trap reagent 3,3,5,5,-tetramethyl-pyrroline N-oxide (TMPO) was used at 125 μg per ml cell culture. Cells were pretreated with […] for 2 hours before lipids were added.

Assay [4] relates to DKO strain (S. pombe Δplh1 Δdga1 double deletion). The assay is described as follows: Cell viability assay (colony forming) after treatment. The protocol:
as §1, §2

Assay [5] relates to DKO cells. The assay is described as follows: Diacylglycerol kinase assay of cellular DAG level. The protocol:
(§5) Diacylglycerol kinase assay: The assay was conducted as described in the Biotrak assay reagents system (Amersham Biosciences). Wild type and DKO yeast cells were grown in YES medium to mid log phase and then treated with medium containing 0.8 mM palmitate or oleate. Cells were collected at different time points (0, 30, 60 and 120 minutes). DAG was extracted with other lipids and quantified through a phosphorylation reaction catalyzed by a bacterial DAG kinase.

Assay [6] concerns wild type cells. The assay is described as follows: Diacylglycerol kinase assay of cellular DAG level, wild type. The following applies: after 2-hour incubation with palmitate, from 1. The protocol: as §5
Where [7] appears, read: DKO strain, early log phase cells, various concentrations of diC8 DAG, 0-3 hours.
[8] abbreviates: mutant cells pretreated with TMPO (125 μg/ml) for 2 hours, then 1 mM palmitate for 2 hours.
[9] abbreviates: caspase inhibitor added, data not shown.

Take `CCCCCCCCCCCCCCC[C@@H](O)[C@@H](N)CO` [DHS, dihydrosphingosine]: in assay [1], the DNA fragmentation result is “no DNA fragmentation was observed” and the “killing of S. pombe cells” value was “could kill S. pombe cells at high concentrations”.

For `CCCC[C@@H](C)[C@@H](OC(=O)C[C@@H](CC(=O)O)C(=O)O)[C@H](C[C@@H](C)C[C@H](O)CCCC[C@@H](O)C[C@H](O)[C@H](C)N)OC(=O)C[C@@H](CC(=O)O)C(=O)O` [fumonisin B1], in assay [2] (data not shown), the “cells undergoing apoptosis in the presence of the inhibitor” value was “more cells underwent apoptosis” and the “rescue of palmitate-induced apoptosis” value was “no rescue of apoptosis was observed”.

For the compound `CCCCCCCC(=O)OC[C@H](CO)OC(=O)CCCCCCC` [diC8 DAG, 1,2-dioctanoyl-sn-glycerol], the ROS production entry in assay [3] is on record as “induced dramatic ROS production”. Moreover, the “nuclear DNA fragmentation” value in assay [2] (setting [7]) is given as “prominent nuclear DNA fragmentation”. Moreover, in assay [2] (DKO strain, up to 3 hours, up to 0.3 mM), the “percentage of cells showing DNA fragmentation, dependence on time and concentration” value is “generally increases with time (up to 3 hours) and concentration”. In addition, in assay [4] (setting [7]), the cell death result was “cell death were observed in the DKO strain”.

`CC1(C)C=[N+]([O-])C(C)(C)C1` [TMPO, 3,3,5,5,-tetramethyl-pyrroline N-oxide]: in assay [3] (setting [8]), the “scavenging of ROS” value is on record as “could effectively scavenge ROS”. Moreover, in assay [2] (setting [8]), the “prevention of DNA fragmentation” value is “prevent DNA fragmentation”. Moreover, the “prevention of cell death” value in assay [4] (setting [8]) is “prevent DNA fragmentation (FIG. 24) and cell death”.

On to `CCCCCCC(=O)CCCCCC/C=C/C[C@@H](O)[C@H](O)[C@@](N)(CO)C(=O)O` [myriocin], for which, in assay [2] (data not shown), the “cells undergoing apoptosis in the presence of the inhibitor” value was “more cells underwent apoptosis” and the “rescue of palmitate-induced apoptosis” value is reported as “no rescue of apoptosis was observed”.

In the case of `CCCCCCCCCCCCCC[C@@H](O)[C@@H](O)[C@@H](N)CO` [PHS, phytosphingosine], in assay [1], the DNA fragmentation entry is “no DNA fragmentation was observed” and the “killing of S. pombe cells” value is recorded as “could kill S. pombe cells at high concentrations”.

`CCCCCCCCCCCCCCCC(=O)O` [palmitate, palmitic acid]: the ROS production result in assay [3] was “induced dramatic ROS production”. In addition, the DAG level in assay [5] (after 2-hour incubation with 0.8 mM palmitate, 1 nmol/mg dry weight before addition) is 3.5 nmol/mg dry weight; in assay [6] it was 1.5 nM/mg dry weight. Further, the “apoptosis induced by fatty acid” value in assay [2] was “caused the DKO cells to undergo apoptosis”.

For `CCCCCCCCCCCCC/C=C/[C@@H](O)[C@H](CO)NC(C)=O` [C2-ceramide, N-acetylsphigosine], in assay [1], the DNA fragmentation entry is “no DNA fragmentation was observed” and the “killing of S. pombe cells” value is recorded as “could kill S. pombe cells at high concentrations”.

As for `COC(=O)C[C@H](NC(=O)[C@H](C)NC(=O)[C@@H](NC(=O)OCc1ccccc1)C(C)C)C(=O)CF` [zVADfmk] (Cbz-Val-Ala-Asp(OMe)-CH2F), in assay [2] (setting [9]), the “prevention of DNA fragmentation” value is “failed to prevent cell death and DNA fragmentation”. The “prevention of cell death” value in assay [4] (setting [9]) is “failed to prevent cell death”.

On to `CCCCCCCC/C=C\CCCCCCCC(=O)O` [oleate, oleic acid], for which, in assay [3], the ROS production entry is reported as “induced dramatic ROS production”. In assay [5] (after 2-hour incubation with oleate, from 1), the DAG level is listed as 2.5 nM/mg dry weight. Moreover, the “apoptosis induced by fatty acid” value in assay [2] is “caused the DKO cells to undergo apoptosis”.
